Results: patent publication US20080293060A1, “Methods and Compositions for Identification of Hydrocarbon Response, Transport and Biosynthesis Genes” (priority 2007, published 2008)

Test system: ARE in Acinetobacter WH405
Format: cell-based, Acinetobacter strain WH405 (derivative of strain ADP1)
Settings: hydrocarbon at 5 and 50 mM, WH405 in LB, 37° C. overnight
Description: Acinetobacter strain WH405, an ARE::lacZ derivative of strain ADP1 (Ratajczak et al 1998), was scraped from an overnight plate into LB and diluted to OD600 0.07 (the cells can also be from an overnight culture, as long as cells are diluted in fresh LB). Alkane and alkene induction of the ARE was tested by adding a number of alkenes at 5 and 50 mM to culture tubes, followed by addition of the diluted WH405 solution into tubes (5 mL). Tubes were incubated in a 37° C. shaker overnight. The β-galactosidase activity assay developed by Miller was used to determine the level of induction by the different hydrocarbon from the overnight cultures.

Row | Compound | induction of the ARE (β-galactosidase activity, Miller assay)
1 | CCCCCC [hexane] | not
2 | CCCCCCCCCC [decane] | induced
3 | CCCCCCCC/C=C\CCCCCCCCCCC [9-cis-heneicosene] | induced
4 | C=CCCCCCCCCCCCCCCCC [1-octadecene] | induced
5 | CCCCCCCC [octane] | induces
6 | C=CCCCCCCCCCCCCCCCCCC [1-eicosene] | induced
7 | C=CCCCCCCCCCCCCCC [1-hexadecene] | induced
8 | C=CCCCCCCCCCCCCCCCCC [1-nonadecene] | induced
9 | CCCCCCCCCCCCCCCC [hexadecane] | induced
10 | CCCCCCCC/C=C\CCCCCCCCCCCCC [9-cis tricosene] | induced
11 | C=CCCCCCCCCCCCCCCC [1-heptadecene] | induced
